Laboratory results as given in patent US9604983B2, “Herbicidal 3-(2-benzyloxyphenyl)-2,4-dihydroxy-1,8-naphthyridine derivatives” (SYNGENTA LIMITED, priority 2013, dated 2017).

Experiments:
Test in all cases: Post-emergence efficacy, glasshouse pot test
Format in all cases: in vivo
Conditions in all cases: post-emergence application at 1000 g/ha; evaluated after 13 days; five point scale
[1] = tested on: Amaranthus retoflexus (AMARE)
Experimental: (§1) B1 Post-emergence Efficacy Seeds of a variety of test species are sown in standard soil in pots:—Solanum nigrum (SOLNI), Amaranthus retoflexus (AMARE), Setaria faberi (SETFA), Alopecurus myosuroides (ALOMY), Echinochloa crus-galli (ECHCG), Ipomoea hederacea (IPOHE). After 8 days cultivation (post-emergence) under controlled conditions in a glasshouse (at 24/16° C., day/night; 14 hours light; 65% humidity), the plants are sprayed with an aqueous spray solution derived from the formulation of the technical active ingredient in acetone/water (50:50) solution containing 0.5% Tween 20 (polyoxyethelyene sorbitan monolaurate, CAS RN 9005-64-5). Compounds are applied at 1000 g/ha. The test plants are then grown in a glasshouse under controlled conditions in a glasshouse (at 24/16° C., day/night; 14 hours light; 65% humidity) and watered twice daily. After 13 days, the test is evaluated for the percentage damage caused to the plant. The biological activities are shown below in Table 13, on a five point scale (5=80-100%; 4=60-79%; 3=40-59%; 2=20-39%; 1=0-19%).

[2] = tested on: Echinochloa crus-galli (ECHCG)
Experimental: as §1

[3] = tested on: Ipomoea hederacea (IPOHE)
Experimental: as §1

Setaria faberi (SETFA) = tested on: Setaria faberi (SETFA)
Experimental: as §1

[4] = tested on: Alopecurus myosuroides (ALOMY)
Experimental: as §1

Solanum nigrum (SOLNI) = tested on: Solanum nigrum (SOLNI)
Experimental: as §1

Compound	percentage damage caused to the plant, AMARE [1]	percentage damage caused to the plant, ECHCG [2]	percentage damage caused to the plant, IPOHE [3]	percentage damage caused to the plant, SETFA (Setaria faberi (SETFA))	percentage damage caused to the plant, ALOMY [4]	percentage damage caused to the plant, SOLNI (Solanum nigrum (SOLNI))
C#CCn1c(=O)c(-c2cccc(Cl)c2OCc2ccccc2)c(OC(=O)C(C)C)c2nccnc21 [Compound 9.003]	4 (4=60-79%)	5 (5=80-100%)	5 (5=80-100%)	5 (5=80-100%)	2 (2=20-39%)	5 (5=80-100%)
O=c1c(-c2c(F)ccc(Cl)c2OCc2ccccc2)c(O)c2cccnc2n1CC(F)F [Compound 8.001]	5 (5=80-100%)	3 (3=40-59%)	5 (5=80-100%)	1 (1=0-19%)	3 (3=40-59%)	5 (5=80-100%)
COc1ccnc2c1c(OC(=O)C(C)C)c(-c1c(Cl)ccc(Cl)c1OCc1ccccc1)c(=O)n2CC(F)F [Compound 3.007]	4 (4=60-79%)	1 (1=0-19%)	2 (2=20-39%)	1 (1=0-19%)	1 (1=0-19%)	2 (2=20-39%)
CC(C)C(=O)Oc1c(-c2c(F)ccc(Cl)c2OCc2ccccc2)c(=O)n(CC(F)F)c2ncccc12 [Compound 7.001]	5 (5=80-100%)	1 (1=0-19%)	5 (5=80-100%)	1 (1=0-19%)	1 (1=0-19%)	5 (5=80-100%)
CC(C)C(=O)Oc1c(-c2cccc(Cl)c2OCc2ccccc2)c(=O)n(CC(F)F)c2nccnc12 [Compound 11.003]	5 (5=80-100%)	5 (5=80-100%)	5 (5=80-100%)	5 (5=80-100%)	2 (2=20-39%)	5 (5=80-100%)
O=c1c(-c2c(F)ccc(Cl)c2OCc2ccccc2)c(O)c2nccnc2n1CC(F)F [Compound 8.003]	5 (5=80-100%)	4 (4=60-79%)	5 (5=80-100%)	5 (5=80-100%)	3 (3=40-59%)	5 (5=80-100%)
O=c1c(-c2c(Cl)ccc(Cl)c2OCc2ccccc2)c(O)c2nccnc2n1CC(F)F [Compound 4.008]	5 (5=80-100%)	5 (5=80-100%)	5 (5=80-100%)	5 (5=80-100%)	4 (4=60-79%)	5 (5=80-100%)
C#CCn1c(=O)c(-c2c(Cl)ccc(Cl)c2OCc2ccccc2)c(OC(=O)C(C)C)c2c(OC)ccnc21 [Compound 1.007]	4 (4=60-79%)	1 (1=0-19%)	1 (1=0-19%)	1 (1=0-19%)	1 (1=0-19%)	4 (4=60-79%)
C#CCn1c(=O)c(-c2cccc(Cl)c2OCc2ccccc2)c(OC(=O)C(C)C)c2cccnc21 [Compound 9.001]	3 (3=40-59%)	2 (2=20-39%)	5 (5=80-100%)	1 (1=0-19%)	1 (1=0-19%)	5 (5=80-100%)
O=c1c(-c2c(Cl)ccc(Cl)c2OCc2ccccc2)c(O)c2cccnc2n1CC(F)F [Compound 4.001]	5 (5=80-100%)	4 (4=60-79%)	5 (5=80-100%)	1 (1=0-19%)	4 (4=60-79%)	5 (5=80-100%)
C#CCn1c(=O)c(-c2c(F)ccc(Cl)c2OCc2ccccc2)c(O)c2cccnc21 [Compound 6.001]	5 (5=80-100%)	4 (4=60-79%)	5 (5=80-100%)	2 (2=20-39%)	3 (3=40-59%)	5 (5=80-100%)
C#CCn1c(=O)c(-c2cccc(Cl)c2OCc2ccccc2)c(O)c2nccnc21 [Compound 10.003]	5 (5=80-100%)	5 (5=80-100%)	5 (5=80-100%)	5 (5=80-100%)	4 (4=60-79%)	5 (5=80-100%)
O=c1c(-c2c(Cl)ccc(Cl)c2OCc2ccc(Cl)c(Cl)c2)c(O)c2cccnc2n1CC(F)F [Compound 4.005]	5 (5=80-100%)	1 (1=0-19%)	5 (5=80-100%)	1 (1=0-19%)	1 (1=0-19%)	5 (5=80-100%)
C#CCn1c(=O)c(-c2c(Cl)ccc(Cl)c2OCc2ccc(C)cc2)c(OC(=O)C(C)C)c2cccnc21 [Compound 1.004]	5 (5=80-100%)	3 (3=40-59%)	3 (3=40-59%)	1 (1=0-19%)	1 (1=0-19%)	5 (5=80-100%)
Cc1ccc(COc2c(Cl)ccc(Cl)c2-c2c(OC(=O)C(C)C)c3cccnc3n(CC(F)F)c2=O)cc1 [Compound 3.004]	4 (4=60-79%)	1 (1=0-19%)	5 (5=80-100%)	1 (1=0-19%)	1 (1=0-19%)	5 (5=80-100%)
C#CCn1c(=O)c(-c2c(F)ccc(Cl)c2OCc2ccccc2)c(OC(=O)C(C)C)c2nccnc21 [Compound 5.003]	5 (5=80-100%)	2 (2=20-39%)	5 (5=80-100%)	5 (5=80-100%)	2 (2=20-39%)	5 (5=80-100%)
C#CCn1c(=O)c(-c2c(Cl)ccc(Cl)c2OCc2ccccc2)c(O)c2nccnc21 [Compound 2.008]	5 (5=80-100%)	5 (5=80-100%)	5 (5=80-100%)	5 (5=80-100%)	5 (5=80-100%)	5 (5=80-100%)
O=c1c(-c2cccc(Cl)c2OCc2ccccc2)c(O)c2cccnc2n1CC(F)F [Compound 12.001]	5 (5=80-100%)	1 (1=0-19%)	5 (5=80-100%)	1 (1=0-19%)	1 (1=0-19%)	5 (5=80-100%)
CC(C)C(=O)Oc1c(-c2c(Cl)ccc(Cl)c2OCc2ccc(C(F)(F)F)cc2)c(=O)n(CC(F)F)c2ncccc12 [Compound 3.006]	5 (5=80-100%)	1 (1=0-19%)	5 (5=80-100%)	1 (1=0-19%)	1 (1=0-19%)	5 (5=80-100%)
C#CCn1c(=O)c(-c2c(Cl)ccc(Cl)c2OCc2ccc(OC)cc2)c(O)c2cccnc21 [Compound 2.002]	4 (4=60-79%)	5 (5=80-100%)	5 (5=80-100%)	5 (5=80-100%)	5 (5=80-100%)	5 (5=80-100%)
COc1ccnc2c1c(OC(C)=O)c(-c1c(F)ccc(Cl)c1OCc1ccccc1)c(=O)n2CC(F)F [Compound 7.002]	5 (5=80-100%)	5 (5=80-100%)	5 (5=80-100%)	5 (5=80-100%)	4 (4=60-79%)	5 (5=80-100%)
